Publication PMC5315687 (ACS chemical biology, 2017)

Target: T1, His6-MibD (Microbispora sp. ATCC PTA-5024, UniProt W2ESX4)
T1 sequence (W2ESX4 1-215): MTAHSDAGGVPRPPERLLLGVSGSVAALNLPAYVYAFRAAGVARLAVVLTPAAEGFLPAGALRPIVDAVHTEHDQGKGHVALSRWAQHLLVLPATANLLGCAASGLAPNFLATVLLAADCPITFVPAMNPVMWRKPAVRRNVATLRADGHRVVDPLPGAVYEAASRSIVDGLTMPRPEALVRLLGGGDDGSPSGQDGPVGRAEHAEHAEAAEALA
Assay: flavin isolated from heat-denatured protein, MALDI-TOF MS
Assay type: binding
Conditions: non-covalent, co-purified

**Q.** How did the “flavin isolated from heat-denatured protein, MALDI-TOF MS” value turn out when `Cc1cc2nc3c(=O)[nH]c(=O)nc-3n(C[C@H](O)[C@H](O)[C@H](O)COP(=O)(O)OP(=O)(O)OC[C@H]3O[C@@H](n4cnc5c(N)ncnc54)[C@H](O)[C@@H]3O)c2cc1C` [FAD] was run?
**A.** The value was “The isolation of FAD from His6-MibD suggests the cofactor is not covalently linked”.
